Measurements as given in US4360511A, “Amines useful as brain imaging agents” (Medi-Physics, Inc., priority 1980, dated 1982).
Read-outs that look alike come from different tables or passages of the source.

Assay: Bioassay: distribution of I-123-labeled compounds in organs of rats after tail vein injection (percent dose/gram, brain/blood ratio)
Assay type: in vivo, Female Sprague-Dawley rats
Details: for Brain/Blood Ratio 5 min. / tissue uptake at 5 min: 5 minutes post-injection; for tissue uptake at 5 min / tissue uptake at 1 h: rat, iv, 0.05 to 1.0 mCi, two rats; for Brain/Blood Ratio 60 min. / tissue uptake at 1 h: 60 minutes post-injection
Description: Female Sprague-Dawley rats weighing approximately 150 g were anesthetized with sodium pentobarbital and were injected in a tail vein with from 0.05 to 1.0 mCi (in a volume of 0.2 to 0.5 ml) of the I-123-labeled compound. Two specimens were utilized for each test.
Two animals each were sacrificed at 5 minutes and 60 minutes post-injection, the tails discarded and the amount of activity in various organs determined. Each organ was counted at a standardized geometry with a sodium iodide crystal scintillation counter adjusted for the 159 keV emission of I-123. The organs were also weighed to one thousandth of a gram and the activity calculated as a percent of administered dose per gram of organ weight.
The ratio of brain-to-blood activity was calculated as a percent of administered dose per gram.

[1] = blood, read-out: Percent Dose/Gram Blood 5 min.
[2] = brain, read-out: Percent Dose/Gram Brain 5 min.
[3] = heart, read-out: Percent Dose/Gram Heart 5 min.
[4] = blood, read-out: Percent Dose/Gram Blood 60 min.
[5] = brain, read-out: Percent Dose/Gram Brain 60 min.
[6] = heart, read-out: Percent Dose/Gram Heart 60 min.

CC(C)N(CCc1ccccc1)CCc1ccccc1[123I] [I--123-N--β-phenethyl-N--isopropyl-o-iodo-β-phenethylamine]
Brain/Blood Ratio 5 min.: 1.83
tissue uptake at 5 min [1]: 0.29 %ID/g
tissue uptake at 5 min [2]: 0.53 %ID/g
tissue uptake at 5 min [3]: 2.01 %ID/g

[123I]c1ccccc1CCNCCc1ccccc1 [I--123-N--β-phenethyl-o-iodo-β-phenethylamine]
Brain/Blood Ratio 5 min.: 4.77
Brain/Blood Ratio 60 min.: 5.17
tissue uptake at 5 min [1]: 0.16 %ID/g
tissue uptake at 1 h [4]: 0.09 %ID/g
tissue uptake at 5 min [2]: 0.74 %ID/g
tissue uptake at 1 h [5]: 0.48 %ID/g
tissue uptake at 5 min [3]: 1.56 %ID/g
tissue uptake at 1 h [6]: 0.26 %ID/g

[123I]c1ccccc1NCCc1ccccc1 [I--123-N--β-phenethyl-o-iodoaniline]
Brain/Blood Ratio 5 min.: 1.24
Brain/Blood Ratio 60 min.: 0.33
tissue uptake at 5 min [1]: 1.04 %ID/g
tissue uptake at 1 h [4]: 0.48 %ID/g
tissue uptake at 5 min [2]: 1.29 %ID/g
tissue uptake at 1 h [5]: 0.16 %ID/g
tissue uptake at 5 min [3]: 1.16 %ID/g
tissue uptake at 1 h [6]: 0.33 %ID/g

[123I]c1ccccc1CNCCc1ccccc1 [I--123-N--β-phenethyl-o-iodobenzylamine]
Brain/Blood Ratio 5 min.: 2.52
Brain/Blood Ratio 60 min.: 0.96
tissue uptake at 5 min [1]: 0.27 %ID/g
tissue uptake at 1 h [4]: 0.14 %ID/g
tissue uptake at 5 min [2]: 0.68 %ID/g
tissue uptake at 1 h [5]: 0.14 %ID/g
tissue uptake at 5 min [3]: 0.56 %ID/g
tissue uptake at 1 h [6]: 0.15 %ID/g

[123I]c1ccc(NCCc2ccccc2)cc1 [I--123-N--β-phenethyl-p-iodoaniline]
Brain/Blood Ratio 5 min.: 1.06
tissue uptake at 5 min [1]: 0.88 %ID/g
tissue uptake at 5 min [2]: 0.93 %ID/g
tissue uptake at 5 min [3]: 1.38 %ID/g

CC(C)N[C@H](C)Cc1ccc([123I])cc1 [I--123-R--N--isopropyl-p-iodoamphetamine, I-123-R-N-isopropyl-p-iodoamphetamine]
Brain/Blood Ratio 5 min.: 12.60
Brain/Blood Ratio 60 min.: 20.70
tissue uptake at 5 min [1]: 0.14 %ID/g
tissue uptake at 1 h [4]: 0.11 %ID/g
tissue uptake at 5 min [2]: 1.57 %ID/g
tissue uptake at 1 h [5]: 2.14 %ID/g
tissue uptake at 5 min [3]: 1.78 %ID/g
tissue uptake at 1 h [6]: 0.87 %ID/g

C[C@@H](N)Cc1ccc([123I])cc1 [I--123-R--p-iodoamphetamine, I-123-R-p-iodoamphetamine]
Brain/Blood Ratio 5 min.: 10.60
Brain/Blood Ratio 60 min.: 18.50
tissue uptake at 5 min [1]: 0.15 %ID/g
tissue uptake at 1 h [4]: 0.12 %ID/g
tissue uptake at 5 min [2]: 1.38 %ID/g
tissue uptake at 1 h [5]: 2.07 %ID/g
tissue uptake at 5 min [3]: 2.43 %ID/g
tissue uptake at 1 h [6]: 1.09 %ID/g

CC(C)N[C@@H](C)Cc1ccc([123I])cc1 [I--123-S--N--isopropyl-p-iodoamphetamine, I-123-S-N-isopropyl-p-iodoamphetamine]
Brain/Blood Ratio 5 min.: 12.80
Brain/Blood Ratio 60 min.: 15.40
tissue uptake at 5 min [1]: 0.11 %ID/g
tissue uptake at 1 h [4]: 0.13 %ID/g
tissue uptake at 5 min [2]: 1.32 %ID/g
tissue uptake at 1 h [5]: 1.93 %ID/g
tissue uptake at 5 min [3]: 1.28 %ID/g
tissue uptake at 1 h [6]: 0.85 %ID/g

C[C@H](N)Cc1ccc([123I])cc1 [I--123-S--p-iodoamphetamine, I-123-S-p-iodoamphetamine]
Brain/Blood Ratio 5 min.: 7.04
Brain/Blood Ratio 60 min.: 11.30
tissue uptake at 5 min [1]: 0.17 %ID/g
tissue uptake at 1 h [4]: 0.17 %ID/g
tissue uptake at 5 min [2]: 1.22 %ID/g
tissue uptake at 1 h [5]: 1.88 %ID/g
tissue uptake at 5 min [3]: 1.52 %ID/g
tissue uptake at 1 h [6]: 0.86 %ID/g

NCCc1ccccc1[123I] [I--123-o-iodo-β-phenethylamine]
Brain/Blood Ratio 5 min.: 0.49
tissue uptake at 5 min [1]: 1.43 %ID/g
tissue uptake at 5 min [2]: 0.7 %ID/g
tissue uptake at 5 min [3]: 1.22 %ID/g

Nc1ccccc1[123I] [I--123-o-iodoaniline]
Brain/Blood Ratio 5 min.: 0.28
Brain/Blood Ratio 60 min.: 0.07
tissue uptake at 5 min [1]: 1.7 %ID/g
tissue uptake at 1 h [4]: 0.44 %ID/g
tissue uptake at 5 min [2]: 0.47 %ID/g
tissue uptake at 1 h [5]: 0.03 %ID/g
tissue uptake at 5 min [3]: 1.02 %ID/g
tissue uptake at 1 h [6]: 0.17 %ID/g

Nc1ccc([123I])cc1 [I--123-p-iodoaniline]
Brain/Blood Ratio 5 min.: 1.12
Brain/Blood Ratio 60 min.: 1.00
tissue uptake at 5 min [1]: 0.97 %ID/g
tissue uptake at 1 h [4]: 0.8 %ID/g
tissue uptake at 5 min [2]: 1.09 %ID/g
tissue uptake at 1 h [5]: 0.8 %ID/g
tissue uptake at 5 min [3]: 1.11 %ID/g
tissue uptake at 1 h [6]: 0.8 %ID/g
